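1) Cells in 96-well plates. 2) Compound, 48 h, 5 concentrations. 3) Linear interpolation between surrounding doses. 4) Unreached endpoint = highest concentration. Here, GI50 denotes the concentration required for 50% inhibition of growth. At the TGI there is no net growth.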
Experiments:
Test in all cases: growth of human tumour cells (NCI), 48 h
[1] = tested on: KM12 colon
[2] = tested on: UACC-257 melanoma
[3] = tested on: NCI-H522 lung
[4] = tested on: DU-145 prostate
[5] = tested on: ACHN renal
[6] = tested on: LOX IMVI melanoma
[7] = tested on: SNB-75 CNS
[8] = tested on: HT29 colon
[9] = tested on: HCT-116 colon
[10] = tested on: PC-3 prostate
[11] = tested on: U251 CNS
[12] = tested on: MCF7 breast
[13] = tested on: 786-0 renal
[14] = tested on: NCI-H23 lung
[15] = tested on: SF-295 CNS
[16] = tested on: SF-268 CNS
[17] = tested on: EKVX NSCLC
[18] = tested on: MDA-MB-435
[19] = tested on: SK-MEL-2 melanoma
[20] = tested on: T-47D breast
[21] = tested on: CAKI-1 renal
[22] = tested on: NCI-H460 lung
[23] = tested on: HL-60(TB) leukemia
[24] = tested on: MOLT-4 leukemia
[25] = tested on: SR leukemia
[26] = tested on: OVCAR-8 ovarian
[27] = tested on: IGROV1 ovarian
[28] = tested on: UACC-62 melanoma
[29] = tested on: M14 melanoma
[30] = tested on: HS 578T breast
[31] = tested on: SK-MEL-28 melanoma
[32] = tested on: SK-OV-3 ovarian
[33] = tested on: NCI/ADR-RES ovarian
[34] = tested on: SF-539 CNS
[35] = tested on: HOP-92 NSCLC
[36] = tested on: HCT-15 colon
[37] = tested on: SK-MEL-5 melanoma
[38] = tested on: SNB-19 CNS
[39] = tested on: OVCAR-3 ovarian
[40] = tested on: MALME-3M melanoma
[41] = tested on: HOP-62 NSCLC
[42] = tested on: TK-10 renal
[43] = tested on: A498 renal
[44] = tested on: SN12C renal
[45] = tested on: HCC-2998 colon
[46] = tested on: RPMI-8226 leukemia
[47] = tested on: UO-31 renal
[48] = tested on: OVCAR-5 ovarian
[49] = tested on: NCI-H226 lung
[50] = tested on: CCRF-CEM leukemia
[51] = tested on: MDA-MB-231 breast
[52] = tested on: SW-620 colon
[53] = tested on: K-562 leukemia
[54] = tested on: RXF 393 renal
[55] = tested on: A549 NSCLC
[56] = tested on: OVCAR-4 ovarian
[57] = tested on: BT-549 breast

Work on `O=C(N/N=C/c1ccc([N+](=O)[O-])cc1)c1ccc2nc(-c3ccc(Cl)cc3)[nH]c2c1` yielded a GI50 [1] of 3.43 µM, a TGI [1] of 13 µM and a GI50 [2] of 3.37 µM. It also gave a TGI [2] of 15.4 µM, a GI50 [3] of 3.05 µM and a TGI [3] of 11.7 µM. It also gave a GI50 [4] of 3.99 µM, a TGI [4] of 21.4 µM and a GI50 [5] of 4.36 µM. The TGI [5] was 31.9 µM, the GI50 [6] was 1.34 µM and the TGI [6] was 3.22 µM. For the same compound, the GI50 [7] was 2.78 µM, the TGI [7] was 18 µM and the GI50 [8] was 3.02 µM. The TGI [8] was greater than 100 µM, the GI50 [9] was 2.25 µM and the TGI [9] was 6.9 µM. For the same compound, the GI50 [10] was 0.42 µM, the TGI [10] was 15.3 µM and the GI50 [11] was 2.91 µM. The TGI [11] was 10.8 µM, the GI50 [12] was 0.582 µM and the TGI [12] was 2.85 µM. The GI50 [13] was 3.92 µM, the TGI [13] was 15.7 µM and the GI50 [14] was 1.85 µM. For the same compound, the TGI [14] was 11.5 µM, the GI50 [15] was 3.4 µM and the TGI [15] was 13.1 µM. For the same compound, the GI50 [16] was 4.97 µM, the TGI [16] was 24.3 µM and the GI50 [17] was 3.2 µM. The TGI [17] was 21.2 µM, the GI50 [18] was 3.57 µM and the TGI [18] was 12.2 µM. For the same compound, the GI50 [19] was 5.1 µM, the TGI [19] was 21.9 µM and the GI50 [20] was 2.29 µM. It also gave a TGI [20] of 7.21 µM, a GI50 [21] of 3.49 µM and a TGI [21] of 16.1 µM. The GI50 [22] was 2.1 µM, the TGI [22] was 4.49 µM and the GI50 [23] was 0.797 µM. For the same compound, the TGI [23] was 5.73 µM, the GI50 [24] was 0.421 µM and the TGI [24] was 3.85 µM. It also gave a GI50 [25] of 0.566 µM, a TGI [25] of 4.87 µM and a GI50 [26] of 2.89 µM. It also gave a TGI [26] of 13.7 µM, a GI50 [27] of 3.04 µM and a TGI [27] of 11.4 µM. It also gave a GI50 [28] of 3.51 µM, a TGI [28] of 14.9 µM and a GI50 [29] of 2.73 µM. For the same compound, the TGI [29] was 9.13 µM, the GI50 [30] was 3.58 µM and the TGI [30] was 24.4 µM. For the same compound, the GI50 [31] was 2.6 µM, the TGI [31] was 10.3 µM and the GI50 [32] was 11.4 µM. It also gave a TGI [32] of 39.6 µM, a GI50 [33] of 12.6 µM and a TGI [33] greater than 100 µM. For the same compound, the GI50 [34] was 2.73 µM, the TGI [34] was 10.1 µM and the GI50 [35] was 0.985 µM. It also gave a TGI [35] of 7.52 µM, a GI50 [36] of 2.6 µM and a TGI [36] of 13 µM. For the same compound, the GI50 [37] was 2.11 µM, the TGI [37] was 4.78 µM and the GI50 [38] was 7.48 µM. The TGI [38] was 32.4 µM, the GI50 [39] was 3.25 µM and the TGI [39] was 8.23 µM. For the same compound, the GI50 [40] was 1.48 µM, the TGI [40] was 5 µM and the GI50 [41] was 6.42 µM. For the same compound, the TGI [41] was 30.8 µM, the GI50 [42] was 8.99 µM and the TGI [42] was 42.3 µM. The GI50 [43] was 2.39 µM, the TGI [43] was 7.75 µM and the GI50 [44] was 3.14 µM. It also gave a TGI [44] of 18.1 µM, a GI50 [45] of 1.48 µM and a TGI [45] of 4.81 µM. It also gave a GI50 [46] of 0.461 µM, a TGI [46] of 2.41 µM and a GI50 [47] of 6.05 µM. It also gave a TGI [47] of 38.3 µM, a GI50 [48] of 4.43 µM and a TGI [48] of 37.8 µM. It also gave a GI50 [49] of 5.03 µM, a TGI [49] of 31.2 µM and a GI50 [50] of 0.591 µM. For the same compound, the TGI [50] was 17.7 µM, the GI50 [51] was 3.75 µM and the TGI [51] was 13.9 µM. For the same compound, the GI50 [52] was 3.44 µM, the TGI [52] was 10.8 µM and the GI50 [53] was 0.499 µM. For the same compound, the TGI [53] was 8.44 µM, the GI50 [54] was 2.03 µM and the TGI [54] was 7.07 µM. The GI50 [55] was 3.98 µM, the TGI [55] was 24.1 µM and the GI50 [56] was 2.75 µM. It also gave a TGI [56] of 8.64 µM, a GI50 [57] of 2.84 µM and a TGI [57] of 9.71 µM.
